Measurements: patent publication US8629110B2, “Kv1.3 channel blocking substances for the treatment of diseases associated with intimal hyperplasia” (priority 2008, dated 2014)

Columns and labels:
[1] = target: Kv1.3 channel (Homo sapiens, UniProt P22001); conditions: Kv1.3 channel; read-out: Affinity (Kd); cited from earlier work
[2] = target: T1, Kv1.3 channels (Mus musculus, UniProt P16390); experiment: Whole-cell patch-clamp of Kv currents in contractile and cultured VSMCs of mouse femoral arteries; type: cell-based; conditions: 10 nM, pulse to +40 mV
T1 construct: endogenous in cells; host or cells: freshly dissociated and cultured VSMCs from femoral arteries of BPN mice
T1 sequence (P16390 whole entry): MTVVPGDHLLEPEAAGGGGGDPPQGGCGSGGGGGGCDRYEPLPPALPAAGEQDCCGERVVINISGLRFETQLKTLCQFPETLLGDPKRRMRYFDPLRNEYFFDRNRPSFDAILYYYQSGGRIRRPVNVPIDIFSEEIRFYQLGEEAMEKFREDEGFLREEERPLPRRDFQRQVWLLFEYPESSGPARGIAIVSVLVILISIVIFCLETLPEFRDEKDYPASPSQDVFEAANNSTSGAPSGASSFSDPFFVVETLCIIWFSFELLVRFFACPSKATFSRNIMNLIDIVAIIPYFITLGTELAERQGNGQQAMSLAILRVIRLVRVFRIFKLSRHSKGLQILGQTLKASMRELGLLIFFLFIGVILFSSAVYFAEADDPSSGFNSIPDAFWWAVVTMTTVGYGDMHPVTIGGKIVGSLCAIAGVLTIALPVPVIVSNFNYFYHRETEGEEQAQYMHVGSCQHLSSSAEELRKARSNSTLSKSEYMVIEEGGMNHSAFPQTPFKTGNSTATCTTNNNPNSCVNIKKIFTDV
Method: To isolate the VSMCs (model of cells in contractile phenotype), the animals were sacrificed by decapitation after anesthesia with isoflurane (5% at 2.5 I O2 min^−1).
To obtain the VSMCs in culture (in vitro model of proliferative phenotype), small fragments (0.5 mm) of femoral arteries free of endothelium and connective tissue were placed in 35 mm Petri culture dishes covered with 2% gelatin (Type B, Sigma) in a DMEM culture medium with 20% of fetal bovine serum, 100 U/ml penicillin, 100 U/ml streptomycin and 2 mM L-glutamine at 37° C. in a 5% CO2 atmosphere. The migration and proliferation of the VSMCs of these explants was clear at 6-10 days, but the explants were maintained until the single layer of VSMC was confluent. At this time, by means of mechanical scraping with a rubber spatula the cells were shed and seeded in a new culture dish at ⅓ of their original density. The VSMCs were thus subjected to several passes (3-4) without showing apparent morphological changes.
The drugs were prepared at the final concentrations indicated in the saline solution of the bath following the supplier's instructions and were applied to the cells for a period of 1-2 minutes. The currents were recorded before applying the drug (control) and in the presence of the drug, and the percentage of reduction in the amplitude of the currents induced by different blockers was calculated.

[3] = system: VSMCs of the human uterine artery; experiment: Proliferation of VSMCs in culture (BrdU incorporation); type: cell-based; conditions: 10 nM; 24 hours; medium with 5% serum
Method: FIG. 8. Effect of the Kv1.3 channel blockers on the proliferation of the VSMCs of the human uterine artery. […] Again, these experiments were conducted in cells in control medium and cells in which the margatoxin or PAP was added to the medium.
For the proliferation studies, the fraction of cells incorporating 5-bromo-2′-deoxyuridine (BrdU) was determined. BrdU is a thymidine analog which can be incorporated in its place for the synthesis phase of the cell cycle. The cells incorporating BrdU can be detected by means of observation under a fluorescence microscope upon using a monoclonal antibody against this molecule and a secondary antibody conjugated with a fluorochrome. The assay was performed with a commercial kit (5-Bromo-2′-deoxy-uridine labeling and Detection Kit I; Roche Applied Science, Germany). The human uterine artery smooth muscle cells were grown for 48 hours in glass coverslips 12 mm in diameter in DMEM medium supplemented with serum and antibiotics as has been previously described, until reaching a confluence close to 50%. […] To quantify the results, the number of cells positive for BrdU with respect to the total number of cells in the field (which is determined by labeling the nuclei with the DAPI fluorescent dye) is counted in 10-20 fields in each experiment.

Chain of Kv1.3 channel (P22001 whole entry): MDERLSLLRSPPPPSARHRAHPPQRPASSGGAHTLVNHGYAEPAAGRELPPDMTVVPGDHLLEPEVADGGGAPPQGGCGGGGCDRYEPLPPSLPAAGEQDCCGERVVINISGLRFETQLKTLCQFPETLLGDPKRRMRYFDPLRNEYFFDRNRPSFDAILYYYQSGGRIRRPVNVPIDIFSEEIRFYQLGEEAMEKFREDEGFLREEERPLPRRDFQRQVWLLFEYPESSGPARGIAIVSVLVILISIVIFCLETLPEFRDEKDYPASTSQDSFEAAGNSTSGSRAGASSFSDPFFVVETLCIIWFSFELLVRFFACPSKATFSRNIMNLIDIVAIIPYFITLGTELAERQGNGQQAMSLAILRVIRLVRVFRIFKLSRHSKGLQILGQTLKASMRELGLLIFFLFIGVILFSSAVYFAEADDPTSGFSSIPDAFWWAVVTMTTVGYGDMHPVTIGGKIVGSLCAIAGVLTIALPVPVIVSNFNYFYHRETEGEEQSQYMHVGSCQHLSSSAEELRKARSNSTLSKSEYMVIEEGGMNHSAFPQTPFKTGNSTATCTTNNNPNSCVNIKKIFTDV

Substance: Agiotoxin-2
- Kd [1]: 0.2 nM

Substance: Bunodosoma granulifera toxin
- Kd [1]: 39 nM

Substance: Buthus martensii Karsch toxin
- Kd [1]: 0.79 nM

Substance: Charybdotoxin
- Kd [1]: 3 nM

Substance: Dendrotoxin
- Kd [1]: 250 nM

Substance: Heterometrus spinifer toxin 1
- Kd [1]: 0.012 nM

Substance: Hongotoxin
- Kd [1]: 0.086 nM

Substance: Kaliotoxin
- Kd [1]: 0.65 nM

Substance: Margatoxin
- current blocked, of the Kv current ([2]; VSMCs in culture): 58.15±4.54
- current blocked, of the Kv current ([2]; contractile VSMCs): 10.6±2.03
- Kd [1]: 0.11 nM
- fraction of cells labeled with BrdU (proliferation) [3]: a lower number of labeled nuclei is observed

Substance: Maurotoxin (VSCTGSKDCYAPCRKQTGCPNAKCINKSCKCYGC; UniProt P80719 1-34, looked up)
- Kd [1]: 150 nM

Substance: Noxiustoxin (TIINVKCTSPKQCSKPCKELYGSSAGAKCMNGKCKCYNN; UniProt P08815 1-39, looked up)
- Kd [1]: 1 nM

Substance: Odonthobthus doriae toxin 2 [Odonthobthus doriae toxin 2 (OdK2)]
- Kd [1]: 7 nM

Substance: Pandinus imperator toxin 1
- Kd [1]: 11 nM

Substance: Pandinus imperator toxin 2
- Kd [1]: 0.05 nM

Substance: Pandinus imperator toxin 3
- Kd [1]: 0.5 nM

Substance: Parabuthus toxin 1
- Kd [1]: 800 nM

Substance: Parabuthus toxin 3
- Kd [1]: 492 nM

Substance: Stichodactyla helianthus toxin [Stichodactyla helianthus toxin (ShK)]
- Kd [1]: 0.011 nM

Substance: Stichodactyla helianthus toxin—fluorescein-6-carboxylic acid [ShK-F6CA]
- Kd [1]: 0.048 nM

Substance: Titystoxin-Kα
- Kd [1]: 4 nM

Substance: trans-N-propyl-carbamoyloxy-PAC
- Kd [1]: 50 nM

Substance: κ-Hefutoxin
- Kd [1]: 40000 nM
